# Measurements as given in patent US4255183A, “Substituted phenyl urea and herbicides for use in paddy field” (Hokko Chemical Industry Co., Ltd., priority 1977, dated 1981).
# Where two headings read alike, the source gives them in different places.
# Key:
# [1] = tested on: Echinochloa crus-galli var. oryzicola; assay: Test Example 4: field test in submerged directly seeded paddy field, Echinochloa crus-galli var. oryzicola; type: in vivo; conditions: Echinochloa crus-galli, 504 h; 300 g/10 are, emulsion, 2- to 3-leaf stage, 21 days after application; read-out: Inhibition (%) of E. crus-galli var. oryzicola
# Method: (§1) In a Wagner pot of 1/500 are, paddy field soil (alluvial soil) was placed and 50 seeds of Echinochloa crus-galli var. oryzicola and 30 seeds of paddy rice were seeded in the surface layer of said soil and the submerging depth was kept at about 1 cm. When Echinochloa crus-galli var. oryzicola reached at the one leaf stage and 5-leaf stage, the emulsion of a predetermined concentration, prepared according to Example 4 was added dropwise. After 30 days from the treatment with the chemical, dry weights of Echinochloa crus-galli var. oryzicola and paddy rice were measured and the inhibition rate was calculated with reference to untreated area. [formula]
# (§2) In a 10 m^2 paddy field, 30 g of Echinochloa crus-galli var. oryzicola seeds were seeded at the time of puddling and the depth of submerging was kept at 3-5 cm. 3 Days after the puddling, 50 g of paddy rice at the emergence stage (Asahi species) were seeded. When Echinochloa crus-galli var. oryzicola and paddy rice reached a 2- to 3-leaf stage, a predetermined dose of the emulsion prepared according to Example 4 was applied uniformly by means of a manual spraying machine. Test results were examined 21 days after the application of the chemicals in the similar manner as in Test Example 1.
# (§3) The comparative chemical 1 used was that commercially available and the comparative chemical 2 used was prepared according to Example 4.
# [2] = tested on: Echinochloa crus-galli var. oryzicola; assay: Test Example 2: concrete pot test on killing effect, Echinochloa crus-galli var. oryzicola; type: in vivo; conditions: Echinochloa crus-galli, 720 h
# Method: as §1
# (§4) In a concrete pot of 1/400 are (50 cm×50 cm), paddy field soil (alluvial soil) was placed and 200 seeds of Echinochloa crus-galli var. oryzicola were seeded in 10 surface layer of said soil and the soil was submerged at about 3 cm depth. Before emergence of Echinochloa crus-galli var. oryzicola, paddy rice at 2.5-leaf stage (Asahi species) was transplanted at the rate of 8 stubs per pot, planting 3 seedlings per stub. At the one-leaf stage (3.5 leaves stage of paddy rice) and 5 leaves stage (7 leaves stage of paddy rice) of Echinochloa crus-galli var. oryzicola, the granule prepared according to Example 1 was applied. […] 30 Days after the treatment with the chemical, examination was made in the similar manner as Test Example 1 to obtain results as shown in Table 2.
# (§5) In the table, as the comparative chemicals CPN, Benthiocarb, Molinate and Simetryne, those commercially available were used and the comparative chemicals A and B (as mentioned before) used were prepared according to the process for preparing the compound of this invention.
# paddy rice [3] = assay: whole plant or invertebrate; type: in vivo, paddy rice (Asahi species); conditions: Oryza sativa, 720 h
# Method: as §1, §4, §5
# Umbrella plant = assay: Test Example 5: Wagner pot test, herbicidal effect on umbrella plant; type: in vivo; conditions: 20 days after application
# Method: (§6) In a 1/7500 are Wagner pot, sieved paddy field soil (alluvial soil) was charged. Thereafter, in the center portion of the pot, 2 roots of paddy rice (Asahi species) at the 2- to 3-leaf stage were transplanted and 20 seeds of Bulrush per pot were seeded in the surface of the above soil. The pot was submerged at the depth of about 2 cm. The other Dopatrium junceum and umbrella plant were generated naturally. After seeding, when each of the weeds reached the same leaf age as defined in Table 5 given herein, a predetermined concentration of the emulsion prepared according to Example 4 was applied dropwise on the surface of the pot. The test was carried out by repeating the same test three times per area and the results were determined 20 days after the application of the chemicals with regard to the herbicidal effect and chemical injury on paddy rice on the basis of the evaluation index as shown below.
# (§7) As the comparative chemicals Molinate, Benthiocarb and DCMU, those commercially available were used.
# (§8) In the above table, the inhibition rate was calculated according to the method as described in Test Example 1.
# paddy rice [4] = assay: Test Example 5: Wagner pot test, chemical injury on paddy rice; type: in vivo, paddy rice (Asahi species); also: key: 5: Completely killed; 4: Considerably injured; 3: Moderately injured; 2: A little injured; 1: Slightly injured; 0: Not injured
# Method: as §6, §7
# Dopatrium junceum = assay: Test Example 5: Wagner pot test, herbicidal effect on Dopatrium junceum; type: in vivo
# Method: as §6, §7, §8
# paddy rice [5] = assay: Test Example 4: field test in submerged directly seeded paddy field, paddy rice; type: in vivo, paddy rice (Asahi species); conditions: Oryza sativa, 504 h; 300 g/10 are, emulsion, 2- to 3-leaf stage, 21 days after application
# Method: as §1, §2, §3
# Bulrush = assay: Test Example 5: Wagner pot test, herbicidal effect on Bulrush; type: in vivo
# Method: as §6, §7, §8
# [6] = tested on: Echinochloa crus-galli var. oryzicola; assay: Test Example 1: pot test on selectivity, inhibition of Echinochloa crus-galli var. oryzicola; type: in vivo; conditions: Echinochloa crus-galli, 720 h
# Method: as §1
# (§9) The comparative chemicals used, i.e. DCMU and Linuron, were those commercially available, and the comparative chemicals A and B used were prepared according to the process for formulating the compound of this invention.
# various weeds = conditions: known upland herbicides; cited from earlier work
# paddy rice [7] = assay: Test Example 1: pot test on selectivity, inhibition of paddy rice; type: in vivo; conditions: for inhibition at 750 g/ha / inhibition at 1500 g/ha / inhibition at 3000 g/ha / inhibition at 6000 g/ha / inhibition at 9000 g/ha: Oryza sativa, 720 h
# Method: as §1, with “When Echinochloa crus-galli var. oryzicola reached at the one leaf stage and 5-leaf stage, the emulsion of a predetermined concentration, prepared according to Example 4 was added dropwise.” left out
# as §9
# paddy rice [8] = conditions: known upland herbicides; cited from earlier work
# [9] = read-out: Inhibition (%) by treatment at 1-leaf stage of E. crus-galli var. oryzicola, E. crus-galli var. oryzicola
# [10] = read-out: Inhibition (%) by treatment at 5-leaf stage of E. crus-galli var. oryzicola, E. crus-galli var. oryzicola
# [11] = read-out: Inhibition (%) by treatment at 1-leaf stage of E. crus-galli var. oryzicola, paddy rice
# [12] = read-out: Inhibition (%) by treatment at 5-leaf stage of E. crus-galli var. oryzicola, paddy rice
# [13] = 300 g/10a, leaf age 2 (first group of columns)
# [14] = 300 g/10a, leaf age 2 (second group of columns)
# [15] = 600 g/10a, leaf age 2 (first group of columns)
# [16] = 600 g/10a, leaf age 2 (second group of columns)
# [17] = 300 g/10a, 3 tillers, 20 days after application
# [18] = 300 g/10a, leaf age 3, 20 days after application
# [19] = 600 g/10a, 3 tillers, 20 days after application
# [20] = 600 g/10a, leaf age 3, 20 days after application
# [21] = 300 g/10a, leaf age 2, 20 days after application
# [22] = 600 g/10a, leaf age 2, 20 days after application
# [23] = 300 g/10a, leaf age 3-5, 20 days after application
# [24] = 600 g/10a, leaf age 3-5, 20 days after application
# [25] = read-out: Inhibition (%) by treatment at 1-leaf stage, E. crus-galli var. oryzicola
# [26] = read-out: Inhibition (%) by treatment at 5-leaf stage, E. crus-galli var. oryzicola
# [27] = read-out: Inhibition (%) by treatment at 1-leaf stage, paddy rice
# [28] = read-out: Inhibition (%) by treatment at 5-leaf stage, paddy rice
smiles,measurement,setting,value
"CCSC(=O)N1CCCCCC1 [Molinate, s-ethyl hexahydro-1H-azepine-1-carbothioate]",inhibition at 3000 g/ha,[1],83%
same,inhibition at 1500 g/ha,[2]; [9],86%
same,inhibition at 3000 g/ha,[2]; [9],100%
same,inhibition at 9000 g/ha,[2]; [9],100%
same,inhibition at 1500 g/ha,[2]; [10],0%
same,inhibition at 3000 g/ha,[2]; [10],13%
same,inhibition at 9000 g/ha,[2]; [10],31%
same,inhibition at 1500 g/ha,paddy rice [3]; [11],0%
same,inhibition at 3000 g/ha,paddy rice [3]; [11],8%
same,inhibition at 9000 g/ha,paddy rice [3]; [11],36%
same,inhibition at 1500 g/ha,paddy rice [3]; [12],0%
same,inhibition at 3000 g/ha,paddy rice [3]; [12],0%
same,inhibition at 9000 g/ha,paddy rice [3]; [12],8%
same,"Weed kill degree, Umbrella plant",Umbrella plant; [13],1 (40-59)
same,"Weed kill degree, Umbrella plant",Umbrella plant; [14],4 (90-99)
same,"Weed kill degree, Umbrella plant",Umbrella plant; [15],1 (40-59)
same,"Weed kill degree, Umbrella plant",Umbrella plant; [16],5 (100)
same,Chemical injury on paddy rice,paddy rice [4]; [17],0
same,Chemical injury on paddy rice,paddy rice [4]; [18],0
same,Chemical injury on paddy rice,paddy rice [4]; [19],0
same,Chemical injury on paddy rice,paddy rice [4]; [20],0
same,"Weed kill degree, Dopatrium junceum",Dopatrium junceum; [21],2 (60-79)
same,"Weed kill degree, Dopatrium junceum",Dopatrium junceum; [18],4 (90-99)
same,"Weed kill degree, Dopatrium junceum",Dopatrium junceum; [22],5 (100)
same,"Weed kill degree, Dopatrium junceum",Dopatrium junceum; [20],5 (100)
same,inhibition at 3000 g/ha,paddy rice [5],12%
same,"Weed kill degree, Bulrush",Bulrush; [18],0 (less than 39)
same,"Weed kill degree, Bulrush",Bulrush; [23],1 (40-59)
same,"Weed kill degree, Bulrush",Bulrush; [20],5 (100)
same,"Weed kill degree, Bulrush",Bulrush; [24],2 (60-79)
"CN(C)C(=O)Nc1ccc(Cl)c(Cl)c1 [DCMU, 3-(3,4-dichlorophenyl)-1,1-dimethyl urea]",inhibition at 750 g/ha,[6]; [25],91%
same,inhibition at 1500 g/ha,[6]; [25],100%
same,inhibition at 3000 g/ha,[6]; [25],100%
same,inhibition at 6000 g/ha,[6]; [25],100%
same,inhibition at 9000 g/ha,[6]; [25],100%
same,inhibition at 750 g/ha,[6]; [26],76%
same,inhibition at 1500 g/ha,[6]; [26],100%
same,inhibition at 3000 g/ha,[6]; [26],100%
same,inhibition at 6000 g/ha,[6]; [26],100%
same,inhibition at 9000 g/ha,[6]; [26],100%
same,"Weed kill degree, Umbrella plant",Umbrella plant; [13],5 (100)
same,"Weed kill degree, Umbrella plant",Umbrella plant; [14],4-5
same,"Weed kill degree, Umbrella plant",Umbrella plant; [15],5 (100)
same,"Weed kill degree, Umbrella plant",Umbrella plant; [16],5 (100)
same,herbicidal activity against various weeds,various weeds,strong herbicidal activity
same,Chemical injury on paddy rice,paddy rice [4]; [17],4
same,Chemical injury on paddy rice,paddy rice [4]; [18],5
same,Chemical injury on paddy rice,paddy rice [4]; [19],5
same,Chemical injury on paddy rice,paddy rice [4]; [20],5
same,inhibition at 750 g/ha,paddy rice [7]; [27],92%
same,inhibition at 1500 g/ha,paddy rice [7]; [27],100%
same,inhibition at 3000 g/ha,paddy rice [7]; [27],100%
same,inhibition at 6000 g/ha,paddy rice [7]; [27],100%
same,inhibition at 9000 g/ha,paddy rice [7]; [27],100%
same,inhibition at 750 g/ha,paddy rice [7]; [28],61%
same,inhibition at 1500 g/ha,paddy rice [7]; [28],100%
same,inhibition at 3000 g/ha,paddy rice [7]; [28],100%
same,inhibition at 6000 g/ha,paddy rice [7]; [28],100%
same,inhibition at 9000 g/ha,paddy rice [7]; [28],100%
same,selectivity between Echinochloa crus-galli var. oryzicola and paddy rice,paddy rice [7]; in vivo,kill not only Echinochloa crus-galli var. oryzicola but also paddy rice
same,"Weed kill degree, Dopatrium junceum",Dopatrium junceum; [21],5 (100)
same,"Weed kill degree, Dopatrium junceum",Dopatrium junceum; [18],5 (100)
same,"Weed kill degree, Dopatrium junceum",Dopatrium junceum; [22],5 (100)
same,"Weed kill degree, Dopatrium junceum",Dopatrium junceum; [20],5 (100)
same,"Weed kill degree, Bulrush",Bulrush; [18],5 (100)
same,"Weed kill degree, Bulrush",Bulrush; [23],5 (100)
same,"Weed kill degree, Bulrush",Bulrush; [20],5 (100)
same,"Weed kill degree, Bulrush",Bulrush; [24],5 (100)
same,chemical injury to paddy rice,paddy rice [8],strong chemical injury to paddy rice
